Assay: xn = mol fraction of the nth substance listed
Details: 101.3 kPa

CC[n+]1ccn(C)c1.O=S(=O)([N-]S(=O)(=O)C(F)(F)F)C(F)(F)F + CCCOCCO
x1 = 1
Details	speed of sound [m/s]
298.15 K	1239.6
303.15 K	1228.7
308.15 K	1218.2
313.15 K	1207.3
318.15 K	1196.8

CCCOCCO + CC[n+]1ccn(C)c1.O=S(=O)([N-]S(=O)(=O)C(F)(F)F)C(F)(F)F
speed of sound [m/s]
Details	298.15 K	303.15 K	308.15 K	313.15 K	318.15 K
x2 = 0.0479	1290.9	1275.1	–	1243.4	1228.5
x2 = 0.0964	1283.5	–	1253.7	1238.8	–
x2 = 0.1514	1278	1264.2	1249.6	1234.5	1220.2
x2 = 0.2034	1273.8	–	1245.7	–	–
x2 = 0.2917	1268	1255	1241.1	–	–
x2 = 0.3883	1263.2	1250.6	1237	1223.4	–
x2 = 0.4926	1258.1	–	1233.3	1220.8	1208.4
x2 = 0.5974	1252.8	1240.9	1229.2	1217.1	1205.2
x2 = 0.6927	1248	1236.4	1225	1214	1202.8
x2 = 0.7631	–	1232.8	1222	1211.3	1200.3
x2 = 0.8253	1241.9	1230.8	1220.5	1209.8	1199.5
x2 = 0.8945	1240.7	–	1219.2	1208.4	1198.4
x2 = 0.9518	1239.7	1229.2	1218.8	1207.7	1198
